Measurements taken from ChEMBL document CHEMBL5465560, “Selectivity Literature for EUbOPEN Chemogenomic Library” (2024).

Experiments:
[1] = molecular target: Casein kinase I isoform epsilon (Homo sapiens, UniProt P49674); test: Selectivity interaction (KinomeScan (DiscoverX)) EUB0001049a CSNK1E; conditions: at 1 µM
[2] = molecular target: T1, Interleukin-1 receptor-associated kinase 3 (Homo sapiens) (UniProt Q9Y616); test: Selectivity interaction (KinomeScan (DiscoverX)) EUB0000666a IRAK3; conditions: at 10 µM
T1 sequence (whole entry): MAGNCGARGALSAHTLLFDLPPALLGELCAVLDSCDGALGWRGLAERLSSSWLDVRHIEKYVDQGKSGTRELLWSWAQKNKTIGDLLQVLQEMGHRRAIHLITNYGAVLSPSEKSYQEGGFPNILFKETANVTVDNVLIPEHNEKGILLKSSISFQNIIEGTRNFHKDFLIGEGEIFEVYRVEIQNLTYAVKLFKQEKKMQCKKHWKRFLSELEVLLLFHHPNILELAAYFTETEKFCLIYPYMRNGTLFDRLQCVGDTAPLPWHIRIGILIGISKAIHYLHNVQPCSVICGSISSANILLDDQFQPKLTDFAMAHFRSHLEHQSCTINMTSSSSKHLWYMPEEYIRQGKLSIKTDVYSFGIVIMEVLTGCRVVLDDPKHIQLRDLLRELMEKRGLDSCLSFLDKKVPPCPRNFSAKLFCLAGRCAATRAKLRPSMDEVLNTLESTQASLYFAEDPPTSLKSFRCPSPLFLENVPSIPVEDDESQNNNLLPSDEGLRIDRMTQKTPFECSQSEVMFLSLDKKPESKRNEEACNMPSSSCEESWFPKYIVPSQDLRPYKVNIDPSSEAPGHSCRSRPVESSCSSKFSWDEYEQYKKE

[3] = molecular target: Calcium/calmodulin-dependent protein kinase kinase 2 (Homo sapiens) (UniProt Q96RR4); test: Selectivity interaction (Kinase panel (KiNativ target engagement assay in Jurkat cells)) EUB0001635a CAMKK2; format: cell-based; conditions: Selectivity number of off-targets 0.0, Selectivity number of targets 233.0, Source Knowledge https://www.sciencedirect.com/science/article/pii/S2451945619300674?via%3Dihub, at 1 µM
Chain of Calcium/calmodulin-dependent protein kinase kinase 2 (Homo sapiens) (Q96RR4 2-588 limits assumed): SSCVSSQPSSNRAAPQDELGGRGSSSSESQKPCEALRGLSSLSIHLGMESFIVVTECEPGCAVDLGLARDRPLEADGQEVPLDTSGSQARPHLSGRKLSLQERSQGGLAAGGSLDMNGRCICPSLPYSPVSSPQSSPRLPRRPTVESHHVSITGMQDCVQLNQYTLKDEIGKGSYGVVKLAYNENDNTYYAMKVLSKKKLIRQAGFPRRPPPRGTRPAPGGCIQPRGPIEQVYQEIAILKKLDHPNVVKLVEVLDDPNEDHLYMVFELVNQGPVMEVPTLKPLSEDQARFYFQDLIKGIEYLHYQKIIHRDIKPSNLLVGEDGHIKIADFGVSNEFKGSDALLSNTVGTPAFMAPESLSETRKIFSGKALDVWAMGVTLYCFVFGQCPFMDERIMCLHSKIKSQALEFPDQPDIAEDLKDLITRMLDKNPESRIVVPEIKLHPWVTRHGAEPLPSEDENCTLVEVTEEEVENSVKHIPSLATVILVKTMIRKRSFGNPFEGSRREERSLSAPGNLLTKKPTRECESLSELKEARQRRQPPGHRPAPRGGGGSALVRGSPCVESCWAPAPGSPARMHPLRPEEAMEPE

[4] = molecular target: T2, MAP kinase-activated protein kinase 5 (Homo sapiens) (UniProt Q8IW41); conditions: at 10 µM
T2 sequence (whole entry): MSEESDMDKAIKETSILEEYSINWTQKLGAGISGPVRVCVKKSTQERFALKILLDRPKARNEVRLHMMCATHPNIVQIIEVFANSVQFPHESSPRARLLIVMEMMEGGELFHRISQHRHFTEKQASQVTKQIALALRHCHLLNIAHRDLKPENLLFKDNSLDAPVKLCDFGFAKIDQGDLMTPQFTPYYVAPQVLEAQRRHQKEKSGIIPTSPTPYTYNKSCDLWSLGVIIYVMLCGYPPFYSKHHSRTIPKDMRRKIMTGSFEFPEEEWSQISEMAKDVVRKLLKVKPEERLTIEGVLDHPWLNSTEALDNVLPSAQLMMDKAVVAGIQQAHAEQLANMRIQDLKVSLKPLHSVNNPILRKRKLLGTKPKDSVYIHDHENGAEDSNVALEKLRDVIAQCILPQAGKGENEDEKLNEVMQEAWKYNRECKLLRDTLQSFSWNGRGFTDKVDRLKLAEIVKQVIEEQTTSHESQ

[5] = molecular target: T3, Dual specificity mitogen-activated protein kinase kinase 6 (Homo sapiens) (UniProt P52564); conditions: at 10 µM
T3 sequence (whole entry): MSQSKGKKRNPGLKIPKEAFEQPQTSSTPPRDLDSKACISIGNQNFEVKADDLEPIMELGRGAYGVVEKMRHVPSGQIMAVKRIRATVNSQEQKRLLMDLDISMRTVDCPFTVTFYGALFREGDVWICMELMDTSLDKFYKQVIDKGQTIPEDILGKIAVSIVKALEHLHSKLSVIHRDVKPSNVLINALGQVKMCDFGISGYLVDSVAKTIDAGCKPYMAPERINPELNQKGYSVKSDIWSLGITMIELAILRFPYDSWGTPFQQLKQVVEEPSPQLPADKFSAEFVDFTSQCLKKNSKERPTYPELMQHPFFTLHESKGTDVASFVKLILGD

[6] = molecular target: T4, Bromodomain-containing protein 1 (Homo sapiens) (UniProt O95696); test: Selectivity interaction (PWWP, WD40, and Tudor domain panel (DSLS measurements, literature)) EUB0000270b BRD1
T4 sequence (whole entry): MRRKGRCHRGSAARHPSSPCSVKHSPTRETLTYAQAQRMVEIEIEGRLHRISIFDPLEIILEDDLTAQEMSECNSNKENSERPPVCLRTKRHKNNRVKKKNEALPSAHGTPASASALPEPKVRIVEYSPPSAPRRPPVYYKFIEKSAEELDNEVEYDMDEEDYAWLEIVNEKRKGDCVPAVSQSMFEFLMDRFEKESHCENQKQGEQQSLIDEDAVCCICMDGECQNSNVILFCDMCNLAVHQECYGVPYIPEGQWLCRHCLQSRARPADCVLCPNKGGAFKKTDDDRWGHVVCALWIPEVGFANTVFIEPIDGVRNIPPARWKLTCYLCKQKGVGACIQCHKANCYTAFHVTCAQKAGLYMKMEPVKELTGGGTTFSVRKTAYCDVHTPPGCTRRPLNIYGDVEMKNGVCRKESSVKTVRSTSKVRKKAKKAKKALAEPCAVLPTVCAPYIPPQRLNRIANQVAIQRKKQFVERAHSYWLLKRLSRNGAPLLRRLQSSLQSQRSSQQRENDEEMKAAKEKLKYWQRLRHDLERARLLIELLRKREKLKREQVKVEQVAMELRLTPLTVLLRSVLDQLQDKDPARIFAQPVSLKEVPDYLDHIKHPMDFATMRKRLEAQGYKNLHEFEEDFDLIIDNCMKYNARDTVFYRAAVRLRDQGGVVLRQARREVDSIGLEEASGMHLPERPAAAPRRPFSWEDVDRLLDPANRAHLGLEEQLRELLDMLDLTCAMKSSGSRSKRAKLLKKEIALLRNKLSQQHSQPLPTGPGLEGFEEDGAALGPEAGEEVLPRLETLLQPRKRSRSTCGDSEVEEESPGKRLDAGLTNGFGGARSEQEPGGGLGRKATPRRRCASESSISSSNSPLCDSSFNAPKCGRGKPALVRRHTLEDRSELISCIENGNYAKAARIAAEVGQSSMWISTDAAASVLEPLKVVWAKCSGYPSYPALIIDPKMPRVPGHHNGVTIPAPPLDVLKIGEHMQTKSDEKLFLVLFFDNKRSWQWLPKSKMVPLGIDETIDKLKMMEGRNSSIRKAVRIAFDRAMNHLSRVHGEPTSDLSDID

[7] = molecular target: Serine/threonine-protein kinase MARK1 (Homo sapiens) (UniProt Q9P0L2); test: Selectivity interaction (KinomeScan (DiscoverX)) EUB0000045b MARK1
Chain of Serine/threonine-protein kinase MARK1 (Homo sapiens) (Q9P0L2 whole entry, looked up): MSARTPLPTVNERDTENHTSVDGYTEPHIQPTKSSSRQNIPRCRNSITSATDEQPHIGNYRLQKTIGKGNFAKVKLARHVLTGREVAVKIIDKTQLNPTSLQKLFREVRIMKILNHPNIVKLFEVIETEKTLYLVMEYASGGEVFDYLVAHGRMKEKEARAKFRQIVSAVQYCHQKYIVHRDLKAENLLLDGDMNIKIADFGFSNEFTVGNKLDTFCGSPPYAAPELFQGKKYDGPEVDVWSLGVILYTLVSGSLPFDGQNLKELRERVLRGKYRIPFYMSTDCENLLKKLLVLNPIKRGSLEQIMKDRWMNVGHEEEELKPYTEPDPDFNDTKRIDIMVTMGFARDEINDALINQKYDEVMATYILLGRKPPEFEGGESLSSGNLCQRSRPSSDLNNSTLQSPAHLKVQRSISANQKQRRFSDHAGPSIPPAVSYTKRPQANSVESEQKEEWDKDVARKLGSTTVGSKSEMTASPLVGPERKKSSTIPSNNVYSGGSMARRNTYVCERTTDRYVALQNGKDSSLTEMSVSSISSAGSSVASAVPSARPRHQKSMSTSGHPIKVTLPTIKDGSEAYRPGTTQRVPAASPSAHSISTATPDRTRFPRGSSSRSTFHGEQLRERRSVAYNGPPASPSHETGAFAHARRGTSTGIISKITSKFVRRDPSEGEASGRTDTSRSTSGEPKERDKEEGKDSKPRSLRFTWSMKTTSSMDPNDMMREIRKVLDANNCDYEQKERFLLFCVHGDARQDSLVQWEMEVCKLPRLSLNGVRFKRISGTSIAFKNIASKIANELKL

[8] = molecular target: Serine/threonine-protein kinase pim-2 (Homo sapiens, UniProt Q9P1W9); test: Selectivity interaction (KinomeScan (DiscoverX)) EUB0000618a PIM2; conditions: at 10 µM
Chain of Serine/threonine-protein kinase pim-2 (Q9P1W9 whole entry, looked up): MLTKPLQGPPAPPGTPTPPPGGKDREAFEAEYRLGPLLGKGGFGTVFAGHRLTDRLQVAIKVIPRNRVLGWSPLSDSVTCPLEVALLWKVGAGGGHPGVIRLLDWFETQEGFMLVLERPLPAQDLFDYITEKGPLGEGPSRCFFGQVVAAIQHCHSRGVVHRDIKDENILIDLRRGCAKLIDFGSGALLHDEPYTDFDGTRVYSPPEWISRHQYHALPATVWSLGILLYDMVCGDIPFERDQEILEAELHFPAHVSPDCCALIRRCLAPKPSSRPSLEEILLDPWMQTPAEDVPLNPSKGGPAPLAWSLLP

[9] = molecular target: Tyrosine-protein kinase Lyn (Homo sapiens, UniProt P07948); test: Selectivity interaction (KinomeScan (DiscoverX)) EUB0001619a LYN; conditions: at 1 µM
Chain of Tyrosine-protein kinase Lyn (P07948 2-512 limits assumed): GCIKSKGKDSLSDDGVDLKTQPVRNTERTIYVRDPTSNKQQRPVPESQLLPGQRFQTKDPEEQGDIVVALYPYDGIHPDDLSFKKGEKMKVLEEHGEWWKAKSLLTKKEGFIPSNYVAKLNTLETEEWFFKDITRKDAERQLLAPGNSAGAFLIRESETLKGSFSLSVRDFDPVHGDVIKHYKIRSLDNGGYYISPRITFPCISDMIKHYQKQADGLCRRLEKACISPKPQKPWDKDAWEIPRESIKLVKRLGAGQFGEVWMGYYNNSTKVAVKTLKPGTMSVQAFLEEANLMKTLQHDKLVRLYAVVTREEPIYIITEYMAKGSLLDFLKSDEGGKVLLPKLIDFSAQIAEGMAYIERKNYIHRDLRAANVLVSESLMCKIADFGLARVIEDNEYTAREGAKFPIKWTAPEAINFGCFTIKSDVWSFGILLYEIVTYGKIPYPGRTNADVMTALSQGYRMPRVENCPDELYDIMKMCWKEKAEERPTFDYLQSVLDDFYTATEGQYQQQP

Chain of Casein kinase I isoform epsilon (P49674 whole entry, looked up, canonical isoform): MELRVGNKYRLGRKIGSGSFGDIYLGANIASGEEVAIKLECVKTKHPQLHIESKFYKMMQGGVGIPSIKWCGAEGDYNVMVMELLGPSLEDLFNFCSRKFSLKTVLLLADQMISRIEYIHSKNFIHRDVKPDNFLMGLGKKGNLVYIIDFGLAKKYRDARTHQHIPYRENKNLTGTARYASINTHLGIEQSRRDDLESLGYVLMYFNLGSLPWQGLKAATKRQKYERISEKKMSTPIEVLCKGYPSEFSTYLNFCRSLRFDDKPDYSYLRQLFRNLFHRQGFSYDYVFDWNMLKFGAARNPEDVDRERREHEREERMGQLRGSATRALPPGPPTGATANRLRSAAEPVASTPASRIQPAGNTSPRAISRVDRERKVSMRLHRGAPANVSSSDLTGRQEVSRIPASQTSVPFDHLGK

COc1cc(Nc2nc(C)cc(-c3cnn4nc(OC)ccc34)n2)cc(C(F)(F)F)c1
% of control [1]: 80%

O=C(NOC[C@H](O)CO)c1ccc(F)c(F)c1Nc1ccc(I)cc1F
% of control [2]: 100%

C=CC(=O)Nc1ccc(C(=O)Nc2[nH]nc3c2CN(C(=O)N[C@H](CN(C)C)c2ccccc2)C3(C)C)cc1
% of engagement [3]: -3.1%

CCN(CC)CCCCNc1ncc2cc(-c3cc(OC)cc(OC)c3)c(NC(=O)NC(C)(C)C)nc2n1
% of control [4]: 100%
% of control [5]: 100%

Cc1cc(CN)cc(C)c1-c1ncn(C)c1-c1cncn1C
dTagg [6]: -2.2 K

C=CC(=O)Nc1cc(-n2c(=O)ccc3cnc4ccc(-c5ccc(NS(C)(=O)=O)cc5)cc4c32)ccc1C
% of control ([7]; at 1 µM): 97%
% of control ([7]; at 10 µM): 89%

O[C@H]1CC[C@H](Nc2ncc3nc(Nc4c(F)cc(F)cc4F)n([C@H]4CCOC4)c3n2)CC1
% of control [8]: 100%

N#Cc1cccc(-c2c[nH]c3ncnc(N4CCOCC4)c23)c1
% of control [9]: 91%
